Laboratory results taken from BigSolDB 2.1.

O=P(O)(O)c1ccccc1
solubility (mole fraction)
Conditions	288.15 K	293.15 K	298.15 K	303.15 K	308.15 K	313.15 K	318.15 K
in acetone	0.136	0.155	0.174	0.197	0.22	0.245	0.277
in acetonitrile	0.0136	0.0166	0.0194	0.0228	0.0275	0.0317	0.0365
in chloroform	0.00104	0.00134	0.00164	0.00211	0.00257	0.0032	0.00393
in ethyl acetate	0.00523	0.00634	0.00755	0.00896	0.0106	0.0127	0.0155
in n-propanol	0.305	0.336	0.358	0.388	0.417	0.445	0.47
